Experiment [1] addresses Rhodesain (Trypanosoma brucei rhodesiense) (UniProt Q95PM0). Briefly: Inhibition of Trypanosoma brucei rhodesain assessed as combinational index measured at fraction affected value of 0.80 in presence of curcumin using Cbz-Phe-Arg-AMC as substrate incubated for 30 mins by fluorescence based assay.
Experiment [2] shares this target. Nature of the experiment: Inhibition of Trypanosoma brucei rhodesain assessed as combinational index measured at fraction affected value of 0.20 in presence of curcumin using Cbz-Phe-Arg-AMC as substrate incubated for 30 mins by fluorescence based assay.
Experiment [3] shares this target. Nature of the experiment: Inhibition of Trypanosoma brucei rhodesain assessed as combinational index measured at fraction affected value of 0.50 in presence of curcumin using Cbz-Phe-Arg-AMC as substrate incubated for 30 mins by fluorescence based assay.
The target is the same in experiment [4]. Briefly: Inhibition of Trypanosoma brucei rhodesain assessed as combinational index measured at fraction affected value of 0.90 in presence of curcumin using Cbz-Phe-Arg-AMC as substrate incubated for 30 mins by fluorescence based assay.
Experiment [5] relates to Trypanosoma brucei brucei. Briefly: Antitrypanosomal activity against blood stage form of Trypanosoma brucei brucei 449 in presence of curcumin incubated for 24 hrs by ATPlite assay. Format: functional, organism-based. The following applies: Trypanosoma brucei, 449, 24 h. On the technique in general: In ATP-based viability assays light output follows the ATP content of the culture.

Experiment [6] has as its target Rhodesain (Trypanosoma brucei rhodesiense) (UniProt Q95PM0). Nature of the experiment: Inhibition of Trypanosoma brucei rhodesain assessed as combinational index measured at fraction affected value of 0.10 in presence of curcumin using Cbz-Phe-Arg-AMC as substrate incubated for 30 mins by fluorescence based assay.
For experiment [7] the target is unchanged. Briefly: Inhibition of Trypanosoma brucei rhodesain assessed as combinational index measured at fraction affected value of 0.99 in presence of curcumin using Cbz-Phe-Arg-AMC as substrate incubated for 30 mins by fluorescence based assay.
For experiment [8] the target is unchanged. Nature of the experiment: Inhibition of Trypanosoma brucei rhodesain assessed as combinational index measured at fraction affected value of 0.60 in presence of curcumin using Cbz-Phe-Arg-AMC as substrate incubated for 30 mins by fluorescence based assay.
The target is the same in experiment [9]. Nature of the experiment: Inhibition of Trypanosoma brucei rhodesain assessed as combinational index measured at fraction affected value of 0.30 in presence of curcumin using Cbz-Phe-Arg-AMC as substrate incubated for 30 mins by fluorescence based assay.
The target is the same in experiment [10]. Briefly: Inhibition of Trypanosoma brucei rhodesain using increasing concentration of Cbz-Phe-Arg-AMC as substrate incubated for 30 mins by fluorometric assay.
Experiment [11] shares this target. Nature of the experiment: Inhibition of Trypanosoma brucei rhodesain assessed as combinational index measured at fraction affected value of 0.40 in presence of curcumin using Cbz-Phe-Arg-AMC as substrate incubated for 30 mins by fluorescence based assay.
Experiment [12] relates to Trypanosoma brucei brucei. Nature of the experiment: Antitrypanosomal activity against blood stage form of Trypanosoma brucei brucei 449 incubated for 24 hrs by ATPlite assay. The experiment is classed as functional, organism-based. The following applies: Trypanosoma brucei, 449, 24 h.
The next experiment concerns the target Rhodesain (Trypanosoma brucei rhodesiense, UniProt Q95PM0). Nature of the experiment: Inhibition of Trypanosoma brucei rhodesain in presence of curcumin using Cbz-Phe-Arg-AMC as substrate incubated for 30 mins by fluorometric assay.
The target of experiment [13] is Rhodesain (Trypanosoma brucei rhodesiense) (UniProt Q95PM0). Briefly: Inhibition of Trypanosoma brucei rhodesain assessed as combinational index measured at fraction affected value of 0.70 in presence of curcumin using Cbz-Phe-Arg-AMC as substrate incubated for 30 mins by fluorescence based assay.
Sequence of Rhodesain (Trypanosoma brucei rhodesiense) (Q95PM0 1-450): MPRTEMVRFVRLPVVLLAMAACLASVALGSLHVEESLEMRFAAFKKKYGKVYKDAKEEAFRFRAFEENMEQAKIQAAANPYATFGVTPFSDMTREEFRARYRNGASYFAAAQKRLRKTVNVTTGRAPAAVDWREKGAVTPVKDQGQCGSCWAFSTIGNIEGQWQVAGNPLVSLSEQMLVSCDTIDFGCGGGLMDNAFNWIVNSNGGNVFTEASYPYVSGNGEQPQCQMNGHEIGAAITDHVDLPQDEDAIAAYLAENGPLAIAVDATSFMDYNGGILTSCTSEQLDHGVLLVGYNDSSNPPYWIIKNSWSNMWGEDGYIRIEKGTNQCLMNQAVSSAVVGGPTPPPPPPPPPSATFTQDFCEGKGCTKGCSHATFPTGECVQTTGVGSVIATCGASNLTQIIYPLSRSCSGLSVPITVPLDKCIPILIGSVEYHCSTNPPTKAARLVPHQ

pIC50: −log10 of the molar value. Activity calls are given as the source filed them. The calls are words filed in the database; no cut-off is given here.

Experimental findings from ChEMBL document CHEMBL4613296 (ACS Med Chem Lett, 2020) are described below.

Sequence of Rhodesain (Q95PM0 whole entry): as the sequence (Q95PM0 1-450) above

The term pIC50 denotes the negative decadic logarithm of the IC50, by convention in mol/L. Take `CC(=O)/C=C/[C@H](CCc1ccccc1)NC(=O)[C@H](Cc1ccccc1)NC(=O)OCc1ccccc1`: the CI in [1] came to 0.768; in [2], 1.16; in experiment [3], 0.941; in [4] it was 0.686; in experiment [6], 1.32; in experiment [7], 0.453. For the same compound, the CI in experiment [8] came out at 0.886; in [9], 1.07; in experiment [11] it was 1; in [13], 0.83. Also, the pIC50 was 5.33 in experiment [5], 5.63 in experiment [12] and 5.52 at Rhodesain. Also, in [10], the inhibition entry was “Active”.

`COc1cc(/C=C/C(=O)CC(=O)/C=C/c2ccc(O)c(OC)c2)ccc1O` [CURCUMIN]: in experiment [10], the inhibition result is “inactive”. In experiment [12], this compound had a pIC50 of 5.51.
